# Test results as given in PubChem BioAssay AID1745844 (Carcinogenic Potency Database (CPDB), 2022).
# Calls of active or inactive are those of the source. No rule for the calls is given here.
# Tested on: rodent lifetime carcinogenesis bioassay, tumor incidence TD50
# Assay: carcinogenic potency in animals, long-term in vivo studies, CPDB compilation (AID 1745844)
structure (smiles),measurement,setting,value
CCN(N=O)C(=O)NCC(C)=O,TD50,"hamster, strain Syrian Golden, females, by gavage, site: forestomach, lesion: carcinoma, dosed 30 weeks, study length 85 weeks",2.19 mg/kg/day
same,TD50,"hamster, strain Syrian Golden, females, by gavage, site: forestomach, lesion: several types, types named in the paper, dosed 30 weeks, study length 85 weeks",0.983 mg/kg/day
same,TD50,"hamster, strain Syrian Golden, females, by gavage, site: spleen, lesion: all vascular tumors, dosed 30 weeks, study length 85 weeks",0.394 mg/kg/day
same,TD50,"hamster, strain Syrian Golden, males, by gavage, site: forestomach, lesion: carcinoma, dosed 30 weeks, study length 85 weeks",1.92 mg/kg/day
same,TD50,"hamster, strain Syrian Golden, males, by gavage, site: forestomach, lesion: several types, types named in the paper, dosed 30 weeks, study length 85 weeks",0.506 mg/kg/day
same,TD50,"hamster, strain Syrian Golden, males, by gavage, site: liver, lesion: cholangioma, dosed 30 weeks, study length 85 weeks",1.1 mg/kg/day
same,TD50,"hamster, strain Syrian Golden, males, by gavage, site: spleen, lesion: hemangiosarcoma, dosed 30 weeks, study length 85 weeks",0.865 mg/kg/day
same,TD50,"rat, strain Fischer 344, females, by gavage, site: lung, lesion: one or several types, types not named, dosed 30 weeks, study length 104 weeks",0.873 mg/kg/day
same,TD50,"rat, strain Fischer 344, females, by gavage, site: mammary tissue, wider than the gland, lesion: carcinoma, dosed 30 weeks, study length 104 weeks",0.192 mg/kg/day
same,TD50,"rat, strain Fischer 344, females, by gavage, site: nervous system, lesion: one or several types, types not named, dosed 30 weeks, study length 104 weeks",1.66 mg/kg/day
same,TD50,"rat, strain Fischer 344, females, by gavage, site: uterus, lesion: one or several types, types not named, dosed 30 weeks, study length 104 weeks",1.84 mg/kg/day
same,TD50,"rat, strain Fischer 344, females, in drinking water, site: colon, lesion: one or several types, types not named, dosed 30 weeks, study length 104 weeks",1.13 mg/kg/day
same,TD50,"rat, strain Fischer 344, females, in drinking water, site: liver, lesion: one or several types, types not named, dosed 30 weeks, study length 104 weeks",5.53 mg/kg/day
same,TD50,"rat, strain Fischer 344, females, in drinking water, site: lung, lesion: one or several types, types not named, dosed 30 weeks, study length 104 weeks",0.885 mg/kg/day
same,TD50,"rat, strain Fischer 344, females, in drinking water, site: mammary tissue, wider than the gland, lesion: carcinoma, dosed 30 weeks, study length 104 weeks",0.748 mg/kg/day
same,TD50,"rat, strain Fischer 344, females, in drinking water, site: nervous system, lesion: one or several types, types not named, dosed 30 weeks, study length 104 weeks",0.605 mg/kg/day
same,TD50,"rat, strain Fischer 344, females, in drinking water, site: skin, lesion: one or several types, types not named, dosed 30 weeks, study length 104 weeks",1.79 mg/kg/day
same,TD50,"rat, strain Fischer 344, females, in drinking water, site: thyroid gland, lesion: follicular-cell tumor, dosed 30 weeks, study length 104 weeks",0.804 mg/kg/day
same,TD50,"rat, strain Fischer 344, females, in drinking water, site: uterus, lesion: one or several types, types not named, dosed 30 weeks, study length 104 weeks",1.49 mg/kg/day
same,TD50,"rat, strain Fischer 344, males, by gavage, site: Zymbal's gland, lesion: one or several types, types not named, dosed 30 weeks, study length 104 weeks",0.499 mg/kg/day
same,TD50,"rat, strain Fischer 344, males, by gavage, site: colon, lesion: one or several types, types not named, dosed 30 weeks, study length 104 weeks",0.562 mg/kg/day
same,TD50,"rat, strain Fischer 344, males, by gavage, site: forestomach, lesion: one or several types, types not named, dosed 30 weeks, study length 104 weeks",0.861 mg/kg/day
same,TD50,"rat, strain Fischer 344, males, by gavage, site: liver, lesion: one or several types, types not named, dosed 30 weeks, study length 104 weeks",3.39 mg/kg/day
same,carcinogen call,"rat, strain Fischer 344, males, by gavage, site: lung, lesion: one or several types, types not named, dosed 30 weeks, study length 104 weeks",positive
same,TD50,"rat, strain Fischer 344, males, by gavage, site: nervous system, lesion: one or several types, types not named, dosed 30 weeks, study length 104 weeks",1.37 mg/kg/day
same,TD50,"rat, strain Fischer 344, males, by gavage, site: thyroid gland, lesion: follicular-cell tumor, dosed 30 weeks, study length 104 weeks",0.767 mg/kg/day
same,TD50,"rat, strain Fischer 344, males, by gavage, site: tunica vaginalis, lesion: mesothelioma, dosed 30 weeks, study length 104 weeks",0.225 mg/kg/day
same,TD50,"rat, strain Fischer 344, males, in drinking water, site: Zymbal's gland, lesion: one or several types, types not named, dosed 30 weeks, study length 104 weeks",1.13 mg/kg/day
same,TD50,"rat, strain Fischer 344, males, in drinking water, site: colon, lesion: one or several types, types not named, dosed 30 weeks, study length 104 weeks",0.524 mg/kg/day
same,TD50,"rat, strain Fischer 344, males, in drinking water, site: lung, lesion: one or several types, types not named, dosed 30 weeks, study length 104 weeks",0.231 mg/kg/day
same,TD50,"rat, strain Fischer 344, males, in drinking water, site: nervous system, lesion: one or several types, types not named, dosed 30 weeks, study length 104 weeks",0.127 mg/kg/day
same,TD50,"rat, strain Fischer 344, males, in drinking water, site: skin, lesion: one or several types, types not named, dosed 30 weeks, study length 104 weeks",0.982 mg/kg/day
same,TD50,"rat, strain Fischer 344, males, in drinking water, site: tunica vaginalis, lesion: mesothelioma, dosed 30 weeks, study length 104 weeks",0.264 mg/kg/day
O=NN(CC(F)(F)F)CC(F)(F)F,TD50,"rat, strain Fischer 344, females, in drinking water, site: liver, lesion: malignant tumor, dosed 30 weeks, study length 130 weeks",4.98 mg/kg/day (inactive)
same,carcinogen call,"rat, strain Sprague-Dawley, males, in drinking water, site: several sites, sites named in the paper, lesion: malignant tumor, dosed 30 weeks, study length 114 weeks",negative (inactive)
Nc1ccc(/C=C/c2ccc(N)c(S(=O)(=O)O)c2)c(S(=O)(=O)O)c1,carcinogen call,"mouse, strain B6C3F1, females, in feed, site: any site (literature study), lesion: several types, types named in the paper, dosed 103 weeks, study length 104 weeks",negative (inactive)
same,TD50,"mouse, strain B6C3F1, males, in feed, site: any site (literature study), lesion: several types, types named in the paper, dosed 103 weeks, study length 104 weeks",12900 mg/kg/day
same,TD50,"mouse, strain B6C3F1, males, in feed, site: liver, lesion: hepatocellular adenoma + hepatocellular carcinoma + neoplastic nodule, dosed 103 weeks, study length 104 weeks",9720 mg/kg/day
same,TD50,"mouse, strain B6C3F1, males, in feed, site: liver, lesion: hepatocellular adenoma, dosed 103 weeks, study length 104 weeks",2570 mg/kg/day (inactive)
same,TD50,"rat, strain Fischer 344, females, in feed, site: any site (literature study), lesion: several types, types named in the paper, dosed 103 weeks, study length 104 weeks",17600 mg/kg/day (inactive)
same,TD50,"rat, strain Fischer 344, males, in feed, site: any site (literature study), lesion: several types, types named in the paper, dosed 103 weeks, study length 104 weeks",5810 mg/kg/day (inactive)
same,TD50,"rat, strain Fischer 344, males, in feed, site: liver, lesion: hepatocellular adenoma + hepatocellular carcinoma + neoplastic nodule, dosed 103 weeks, study length 104 weeks",5020 mg/kg/day
CC(=O)Nc1nnc(-c2ccc([N+](=O)[O-])o2)s1,TD50,"mouse, strain Swiss, females, in feed, site: any site (literature study), lesion: several types, types named in the paper, dosed 46 weeks, study length 55 weeks",6.9 mg/kg/day
same,TD50,"mouse, strain Swiss, females, in feed, site: forestomach, lesion: several types, types named in the paper, dosed 46 weeks, study length 55 weeks",6.74 mg/kg/day
same,TD50,"mouse, strain Swiss, females, in feed, site: forestomach, lesion: squamous-cell carcinoma, dosed 46 weeks, study length 55 weeks",104 mg/kg/day
same,TD50,"mouse, strain Swiss, females, in feed, site: forestomach, lesion: squamous-cell papilloma, dosed 46 weeks, study length 55 weeks",14.1 mg/kg/day
same,TD50,"rat, strain Sprague-Dawley, females, in feed, site: all sites, lesion: lymphoblastic lymphoma, dosed 40 weeks, study length 59 weeks",111 mg/kg/day
same,TD50,"rat, strain Sprague-Dawley, females, in feed, site: forestomach, lesion: several types, types named in the paper, dosed 40 weeks, study length 59 weeks",8.84 mg/kg/day
same,TD50,"rat, strain Sprague-Dawley, females, in feed, site: forestomach, lesion: squamous-cell papilloma, dosed 40 weeks, study length 59 weeks",11.6 mg/kg/day
same,TD50,"rat, strain Sprague-Dawley, females, in feed, site: intestine, lesion: hemangioendothelial sarcoma, dosed 40 weeks, study length 59 weeks",18.6 mg/kg/day
same,TD50,"rat, strain Sprague-Dawley, females, in feed, site: kidney/pelvis, lesion: transitional-cell carcinoma, dosed 40 weeks, study length 59 weeks",16.9 mg/kg/day
same,TD50,"rat, strain Sprague-Dawley, females, in feed, site: liver, lesion: hemangioendothelial sarcoma, dosed 40 weeks, study length 59 weeks",22.9 mg/kg/day
same,TD50,"rat, strain Sprague-Dawley, females, in feed, site: lung, lesion: alveolar-cell carcinoma, dosed 40 weeks, study length 59 weeks",15.3 mg/kg/day
same,TD50,"rat, strain Sprague-Dawley, females, in feed, site: lung, lesion: hemangioendothelial sarcoma, dosed 40 weeks, study length 59 weeks",52.3 mg/kg/day
same,TD50,"rat, strain Sprague-Dawley, females, in feed, site: mammary gland, lesion: adenocarcinoma, dosed 40 weeks, study length 59 weeks",37.7 mg/kg/day
same,TD50,"rat, strain Sprague-Dawley, females, in feed, site: mammary gland, lesion: several types, types named in the paper, dosed 40 weeks, study length 59 weeks",43.3 mg/kg/day
same,TD50,"rat, strain Sprague-Dawley, females, in feed, site: pancreas, lesion: hemangioendothelial sarcoma, dosed 40 weeks, study length 59 weeks",81.6 mg/kg/day
same,TD50,"rat, strain Sprague-Dawley, females, in feed, site: several sites, sites named in the paper, lesion: hemangioendothelial sarcoma, dosed 40 weeks, study length 59 weeks",10.6 mg/kg/day
same,TD50,"rat, strain Sprague-Dawley, females, in feed, site: small intestine, lesion: adenocarcinoma, dosed 40 weeks, study length 59 weeks",111 mg/kg/day
same,TD50,"rat, strain Sprague-Dawley, females, in feed, site: small intestine, lesion: leiomyosarcoma, dosed 40 weeks, study length 59 weeks",111 mg/kg/day
CC1=C[C@H]2[C@@]3(O)[C@H](C)[C@@H](O)[C@]4(O)[C@H]([C@@H]3C=C(CO)C[C@]2(O)C1=O)C4(C)C,carcinogen call,"mouse, strain AKR/J, females, i.p., site: lymphoreticular system, lesion: lymphatic leukemia, dosed 104 weeks, study length 104 weeks",negative (inactive)
same,TD50,"mouse, strain AKR/J, males, i.p., site: lymphoreticular system, lesion: lymphatic leukemia, dosed 104 weeks, study length 104 weeks",8.26 mg/kg/day (inactive)
same,carcinogen call,"mouse, strain BALB/c, females, i.p., site: lymphoreticular system, lesion: one or several types, types not named, dosed 104 weeks, study length 104 weeks",negative (inactive)
same,carcinogen call,"mouse, strain BALB/c, males, i.p., site: lymphoreticular system, lesion: one or several types, types not named, dosed 104 weeks, study length 104 weeks",negative (inactive)
same,carcinogen call,"mouse, strain C3HeB, females, i.p., site: lymphoreticular system, lesion: one or several types, types not named, dosed 104 weeks, study length 104 weeks",negative (inactive)
same,carcinogen call,"mouse, strain C3HeB, males, i.p., site: lymphoreticular system, lesion: one or several types, types not named, dosed 104 weeks, study length 104 weeks",negative (inactive)
same,carcinogen call,"mouse, strain C57BL, females, i.p., site: lymphoreticular system, lesion: one or several types, types not named, dosed 104 weeks, study length 104 weeks",negative (inactive)
same,TD50,"mouse, strain SJL/J, females, i.p., site: lymphoreticular system, lesion: reticulum-cell sarcoma, type B, dosed 104 weeks, study length 104 weeks",92.6 mg/kg/day
same,TD50,"mouse, strain SWR, females, i.p., site: lymphoreticular system, lesion: lymphatic leukemia, dosed 104 weeks, study length 104 weeks",2.21 mg/kg/day
Cc1c(COC(=O)[C@@H]2[C@H](/C=C(\Cl)C(F)(F)F)C2(C)C)cccc1-c1ccccc1,TD50,"mouse, strain Swiss Webster, males, in feed, site: urinary bladder, lesion: mesenchymal neoplasm, dosed 86 weeks, study length 86 weeks",286 mg/kg/day
CCCCNC(N)=O,carcinogen call,"mouse, strain C57BL/6, females, in feed, site: any site (literature study), lesion: several types, types named in the paper, dosed 52 weeks, study length 69 weeks",negative (inactive)
same,carcinogen call,"mouse, strain C57BL/6, females, in feed, site: liver, lesion: hepatocellular carcinoma, dosed 52 weeks, study length 69 weeks",negative (inactive)
same,carcinogen call,"mouse, strain C57BL/6, females, in feed, site: lung, lesion: adenoma, dosed 52 weeks, study length 69 weeks",negative (inactive)
same,TD50,"mouse, strain C57BL/6, males, in feed, site: any site (literature study), lesion: several types, types named in the paper, dosed 52 weeks, study length 69 weeks",699 mg/kg/day (inactive)
same,carcinogen call,"mouse, strain C57BL/6, males, in feed, site: liver, lesion: hepatocellular carcinoma, dosed 52 weeks, study length 69 weeks",negative (inactive)
same,TD50,"mouse, strain C57BL/6, males, in feed, site: lung, lesion: adenoma, dosed 52 weeks, study length 69 weeks",5510 mg/kg/day (inactive)
same,carcinogen call,"rat, strain Fischer 344, females, in feed, site: any site (literature study), lesion: several types, types named in the paper, dosed 52 weeks, study length 69 weeks",negative (inactive)
same,carcinogen call,"rat, strain Fischer 344, females, in feed, site: liver, lesion: one or several types, types not named, dosed 52 weeks, study length 69 weeks",negative (inactive)
same,carcinogen call,"rat, strain Fischer 344, males, in feed, site: any site (literature study), lesion: several types, types named in the paper, dosed 52 weeks, study length 69 weeks",negative (inactive)
same,carcinogen call,"rat, strain Fischer 344, males, in feed, site: liver, lesion: one or several types, types not named, dosed 52 weeks, study length 69 weeks",negative (inactive)
